Results: patent US9353090B2, “Heterocyclic carboxylic acids as activators of soluble guanylate cyclase” (Boehringer Ingelheim International GmbH, priority 2014, dated 2016)
In brackets after ≈: the same amount, converted by molar mass.

Key:
[1] = target: human soluble guanylate cyclase alpha 1 and beta 1 subunits (sGC) (Homo sapiens (Human), UniProt Q02108+Q02153); assay: sGC cellular activator assay (cGMP, HTRF), in the presence and absence of 50% human serum; type: cell-based; conditions: CHO cells stably expressing human sGC alpha 1/beta 1, preincubated with 40 microM ODQ; cGMP by HTRF; Table 2 does not state whether with or without 50% human serum
How it was run: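 Heme-oxidized conditions: ODQ (40 microM, 1 h) pretreatment of CHO cells stably expressing human α1/β1 sGC, in buffer containing 0.1% BSA and IBMX.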

[2] = Human liver microsome (HLM) metabolic stability assay; type: in vitro ADME; conditions: human liver microsomes
How it was run: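 Compound at 1 uM incubated with human liver microsomes at 37° C. for 60 min after NADPH addition. Aliquots quenched in cold acetonitrile at 0, 5, 15, 30 and 60 min and analysed by LC/MS/MS. t1/2 from ln(% remaining) vs time slope; CLint, CLh and % Qh derived from it (n=1).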

[3] = physchem; conditions: kinetic from dmso stock
[4] = pH 2.2, aqueous buffer, Solubility (pH 2.2)
[5] = pH 4.5, aqueous buffer, Solubility (pH 4.5)
[6] = pH 6.8, aqueous buffer, Solubility (pH 6.8)

human soluble guanylate cyclase alpha 1 and beta 1 subunits (sGC), sequence (Q02108 whole entry partner): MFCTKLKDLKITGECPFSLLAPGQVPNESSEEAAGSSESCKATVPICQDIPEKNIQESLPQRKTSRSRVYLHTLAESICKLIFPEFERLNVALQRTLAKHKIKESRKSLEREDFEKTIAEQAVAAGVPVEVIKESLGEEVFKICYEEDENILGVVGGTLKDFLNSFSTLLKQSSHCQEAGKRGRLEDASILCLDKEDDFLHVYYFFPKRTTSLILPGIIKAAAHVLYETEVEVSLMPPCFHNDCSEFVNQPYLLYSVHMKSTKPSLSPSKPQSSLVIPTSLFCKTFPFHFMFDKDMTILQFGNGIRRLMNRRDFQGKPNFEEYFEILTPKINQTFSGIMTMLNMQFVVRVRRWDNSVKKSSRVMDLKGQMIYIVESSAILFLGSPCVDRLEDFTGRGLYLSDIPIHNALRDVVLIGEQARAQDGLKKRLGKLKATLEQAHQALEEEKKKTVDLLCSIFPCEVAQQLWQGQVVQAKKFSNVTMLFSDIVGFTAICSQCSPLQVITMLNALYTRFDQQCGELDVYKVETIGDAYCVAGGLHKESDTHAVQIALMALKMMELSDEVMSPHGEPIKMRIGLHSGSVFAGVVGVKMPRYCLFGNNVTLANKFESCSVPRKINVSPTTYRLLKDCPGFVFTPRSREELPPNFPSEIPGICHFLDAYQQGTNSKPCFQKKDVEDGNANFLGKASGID
human soluble guanylate cyclase alpha 1 and beta 1 subunits (sGC), sequence (Q02153 whole entry): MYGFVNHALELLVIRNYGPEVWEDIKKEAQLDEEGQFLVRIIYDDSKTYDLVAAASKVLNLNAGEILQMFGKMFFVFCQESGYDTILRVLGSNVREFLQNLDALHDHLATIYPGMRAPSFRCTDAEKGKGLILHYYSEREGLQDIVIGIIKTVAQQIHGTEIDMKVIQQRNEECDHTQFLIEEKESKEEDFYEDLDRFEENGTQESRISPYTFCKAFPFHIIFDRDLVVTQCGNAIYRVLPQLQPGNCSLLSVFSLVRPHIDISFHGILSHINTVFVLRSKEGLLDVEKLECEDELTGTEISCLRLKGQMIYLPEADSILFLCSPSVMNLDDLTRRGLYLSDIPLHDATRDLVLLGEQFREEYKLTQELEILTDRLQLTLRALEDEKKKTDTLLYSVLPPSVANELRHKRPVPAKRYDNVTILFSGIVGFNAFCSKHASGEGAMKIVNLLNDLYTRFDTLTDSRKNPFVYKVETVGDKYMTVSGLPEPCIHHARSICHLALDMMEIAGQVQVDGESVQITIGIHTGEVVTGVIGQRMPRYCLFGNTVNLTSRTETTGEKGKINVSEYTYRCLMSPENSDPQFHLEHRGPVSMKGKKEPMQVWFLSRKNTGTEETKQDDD

Row | Structure (SMILES) | EC50 [1] [nM] | Metabolic stability (Qh %), % hepatic blood flow [2] [%] | solubility at 24 h [3, 4] [µg/mL] | solubility at 24 h [3, 5] [µg/mL] | solubility at 24 h [3, 6] [µg/mL]
1 | CO[C@H]1CN(c2nc(-c3cccc(C)c3OCc3ccc4c(c3)[C@H](C)CN(C3CCOCC3)CC4)cs2)CC[C@H]1C(=O)O [Compound 313] | 7 | <24 | 141 (≈ 233 µM) | 136 (≈ 225 µM) | 133 (≈ 219 µM)
2 | Cc1ccc(OCc2ccc3c(c2C)CCN(C2CCCOC2)C3)c(-c2csc(N3CC[C@@]4(C(=O)O)C[C@H]4C3)n2)c1 (some centres unmarked) [Compound 118] | 4 | 34 | 120 (≈ 209 µM) | 21 (≈ 36.6 µM) | < 0.1
3 | Cc1c(COc2ccccc2-c2cccc(N3CC[C@@]4(C(=O)O)C[C@H]4C3)n2)ccc2c1CCN(C1CCC1)C2 [Compound 292] | 3 | 47 | 113 (≈ 216 µM) | 43.5 (≈ 83.1 µM) | 6.2 (≈ 11.8 µM)
4 | Cc1cccc(-c2csc(N3C[C@H]4C[C@@]4(C(=O)O)[C@@H]3C)n2)c1OCc1ccc2c(c1C)CCN(C1CCOCC1)C2 [Compound 155] | 46 | <24 | 96 (≈ 167 µM) | 69 (≈ 120 µM) | 61 (≈ 106 µM)
5 | Cc1cc(COc2c(C)cccc2-c2csc(N3CC[C@@]4(C(=O)O)C[C@H]4C3)n2)c(C)c2c1CN(C1COC1)CC2 [Compound 102] | 3 | 52 | 130 (≈ 232 µM) | 41 (≈ 73.2 µM) | 54 (≈ 96.5 µM)
6 | CO[C@H]1CN(c2cccc(-c3cc(C)ccc3OCc3cc(C)c4c(c3)CCN(C3CCOCC3)C4)n2)CC[C@H]1C(=O)O [Compound 72] | 64 | <24 | 120 (≈ 205 µM) | 100 (≈ 171 µM) | 74 (≈ 126 µM)
7 | CO[C@H]1CN(c2nc(-c3cccc(Cl)c3OCc3ccc4c(c3C)CCN(C3CCOCC3)C4)cs2)CC[C@H]1C(=O)O [Compound 207] | 8 | <24 | 143 (≈ 234 µM) | 88.6 (≈ 145 µM) | 76.8 (≈ 125 µM)
8 | CO[C@H]1CN(c2nc(-c3cccc(C)c3OCc3ccc4c(c3)C(C)(C)CN(C3CCOCC3)CC4)cs2)CC[C@H]1C(=O)O [Compound 323] | 2 | 45 | 131 (≈ 211 µM) | 84.3 (≈ 136 µM) | 65.2 (≈ 105 µM)
9 | COC[C@H]1N(c2cccc(-c3cccc(F)c3OCc3cc(C)c4c(c3)CCN(C3CCOCC3)C4)n2)C[C@@H]2C[C@@]21C(=O)O [Compound 213] | 134 | <24 | 144 (≈ 239 µM) | 109 (≈ 181 µM) | 81.3 (≈ 135 µM)
10 | Cc1c(COc2ccccc2-c2cccc(N3CC[C@@]4(C(=O)O)C[C@H]4C3)n2)ccc2c1CCN(Cc1cncn1C)C2 [Compound 308] | 10 | 43 | 135 (≈ 239 µM) | 97.5 (≈ 173 µM) | 0.1 (≈ 0.177 µM)
11 | CO[C@@H]1CN(c2cccc(-c3cccc(C)c3OCc3ccc4c(c3)C(C)(C)CN(C3CCOCC3)CC4)n2)CC[C@@H]1C(=O)O [Compound 324] | 2 | <24 | 134 (≈ 218 µM) | 103 (≈ 168 µM) | 77.5 (≈ 126 µM)
12 | Cc1cccc(-c2cccc(N3C[C@@H]4C[C@]4(C(=O)O)C3)n2)c1OCc1ccc2c(c1C)CCN(C1CCOCC1)C2 [Compound 21] | 11 | <24 | 120 (≈ 217 µM) | 110 (≈ 199 µM) | 70 (≈ 126 µM)
13 | CO[C@@H]1CN(c2nc(-c3cccc(C)c3OCc3ccc4c(c3C)CCN(C3COC3)C4)cs2)CC[C@@H]1C(=O)O [Compound 174] | 44 | <24 | 120 (≈ 213 µM) | 79 (≈ 140 µM) | 83 (≈ 147 µM)
14 | Cc1ccc(OCc2cc(C)c3c(c2)CCN(C2CCOCC2)C3)c(-c2csc(N3CC[C@H](C(=O)O)[C@H](C)C3)n2)c1 [Compound 236] | 66 | <24 | 141 (≈ 245 µM) | 131 (≈ 228 µM) | 129 (≈ 225 µM)
15 | CCO[C@@H]1CN(c2nccc(-c3cccc(C)c3OCc3ccc4c(c3C)CCN(C3CCOCC3)CC4)n2)CC[C@@H]1C(=O)O [Compound 276] | 150 | <24 | 126 (≈ 206 µM) | 84.8 (≈ 138 µM) | 90.6 (≈ 147 µM)
16 | COC[C@H]1N(c2cccc(-c3cccc(C)c3OCc3ccc4c(c3)CN(C3CCOCC3)CC4)n2)C[C@@H]2C[C@@]21C(=O)O [Compound 224] | 51 | 31 | 150 (≈ 257 µM) | 145 (≈ 249 µM) | 136 (≈ 233 µM)

Row | Structure (SMILES) | EC50 [1] [nM] | Metabolic stability (Qh %), % hepatic blood flow [2] [%] | solubility at 24 h [3, 4] [µg/mL] | solubility at 24 h [3, 5] [µg/mL] | solubility at 24 h [3, 6] [µg/mL]
17 | Cc1ccc(OCc2ccc3c(c2C)CCN(C2CCOC2)CC3)c(-c2csc(N3CC[C@@]4(C(=O)O)C[C@H]4C3)n2)c1 (some centres unmarked) [Compound 133] | 18 | 43 | 90 (≈ 157 µM) | 12 (≈ 20.9 µM) | 1.6 (≈ 2.79 µM)
18 | CO[C@H]1CN(c2cccc(-c3cccc(C)c3OCc3ccc4c(c3F)CCN(C3CCOCC3)CC4)n2)CC[C@H]1C(=O)O [Compound 277] | 4 | <24 | 133 (≈ 220 µM) | 97.1 (≈ 161 µM) | 74.4 (≈ 123 µM)
19 | CO[C@H]1CN(c2cccc(-c3cc(C)ccc3OCc3ccc4c(c3C)CCN(C3CCOCC3)CC4)n2)CC[C@H]1C(=O)O [Compound 73] | 57 | 28 | 110 (≈ 183 µM) | 93 (≈ 155 µM) | 69 (≈ 115 µM)
20 | Cc1cc(COc2c(C)cccc2-c2csc(N3CC[C@@]4(C(=O)O)C[C@H]4C3)n2)cc2c1CN(C1CCOCC1)CC2 [Compound 96] | 2 | 33 | 120 (≈ 209 µM) | 68 (≈ 119 µM) | 52 (≈ 90.6 µM)
21 | COC[C@H]1N(c2nc(-c3cc(C)ccc3OCc3ccc4c(c3)CCN(C3CCOCC3)C4)cs2)C[C@@H]2C[C@@]21C(=O)O [Compound 163] | 345 | <24 | 110 (≈ 187 µM) | 77 (≈ 131 µM) | 65 (≈ 110 µM)
22 | COC[C@H]1N(c2cccc(-c3cccc(C)c3OCc3cc(C)c4c(c3)CCN(C3CCOCC3)C4)n2)C[C@@H]2C[C@@]21C(=O)O [Compound 48] | 18 | <24 | 110 (≈ 184 µM) | 69 (≈ 115 µM) | 83 (≈ 139 µM)
23 | COc1cc(COc2ccc(C)cc2-c2csc(N3CC[C@@H](C(=O)O)[C@@H](OC)C3)n2)c(F)c2c1CN(C1CCOCC1)CC2 [Compound 271] | 5 | <24 | 134 (≈ 214 µM) | 66.6 (≈ 106 µM) | 32.8 (≈ 52.4 µM)
24 | CCO[C@@H]1CN(c2nc(-c3cc(C)ccc3OCc3cc4c(c(OC)c3)CN(C3CCOCC3)CC4)cs2)CC[C@@H]1C(=O)O [Compound 229] | 4 | <24 | 122 (≈ 196 µM) | 116 (≈ 187 µM) | 114 (≈ 184 µM)
25 | Cc1ccc(OCc2ccc3c(c2)CCN(C2CCOCC2)C3)c(-c2csc(N3C[C@@H]4C[C@]4(C(=O)O)[C@H]3C)n2)c1 [Compound 153] | 14 | <24 | 120 (≈ 214 µM) | 72 (≈ 129 µM) | 47 (≈ 84 µM)
26 | CCO[C@@H]1CN(c2nc(-c3cccc(C)c3OCc3cc(C)c4c(c3F)CCN(C3CCOCC3)C4)cs2)CC[C@@H]1C(=O)O [Compound 241] | 2 | 42.5 | 129 (≈ 207 µM) | 98.5 (≈ 158 µM) | 92.2 (≈ 148 µM)
27 | CCO[C@@H]1CN(c2nc(-c3cc(C)ccc3OCc3cc(OC)c4c(c3F)CCN(C3CCOCC3)C4)cs2)CC[C@@H]1C(=O)O [Compound 272] | 2 | <24 | 128 (≈ 201 µM) | 54.1 (≈ 84.6 µM) | 18.5 (≈ 28.9 µM)
28 | Cc1ccc(OCc2ccc3c(c2C)CCN(C2CCOCC2)CC3)c(-c2csc(N3C[C@@H]4C[C@]4(C(=O)O)C3)n2)c1 [Compound 150] | 24 | <24 | 100 (≈ 174 µM) | 44 (≈ 76.7 µM) | 9.7 (≈ 16.9 µM)
29 | COC[C@H]1N(c2cccc(-c3cccc(C)c3OCc3cc(C)c4c(c3)CN(C3CCOCC3)C4)n2)C[C@@H]2C[C@@]21C(=O)O [Compound 222] | 23 | <24 | 132 (≈ 227 µM) | 130 (≈ 222 µM) | 119 (≈ 203 µM)
30 | Cc1cccc(-c2csc(N3C[C@H]4C[C@@]4(C(=O)O)[C@@H]3C)n2)c1OCc1ccc2c(c1C)CCN(C1COC1)C2 [Compound 156] | 387 | <24 | > 140 | 0.5 (≈ 0.916 µM) | 8.9 (≈ 16.3 µM)
31 | CO[C@@H]1CN(c2nc(-c3cccc(C)c3OCc3cc(C)c4c(c3)CCN(CC3COCCO3)C4)cs2)CC[C@@H]1C(=O)O (some centres unmarked) [Compound 175] | 155 | <24 | 140 (≈ 230 µM) | 100 (≈ 165 µM) | 95 (≈ 156 µM)
